Experimental findings from publication PMC7287874 (2020) are described below.

Test [1] deals with GR wild type (xpt-pbuX guanine riboswitch aptamer) (RNA, riboswitch) GGACAUAUAAUCGCGUGGAUAUGGCACGCAAGUUUCUACCGGGCACCGUAAAUGUCCGACUAUGUCCA
The test can be described thus: ITC. Particulars: 100 mM KCl, 20 mM MgCl2, 50 mM K-HEPES, pH 7.5, 25 °C; for binding: no binding, highest concentration for this compound not stated; for KD: single-site fit.

Test [2] has as its system GR(A19C-U77G) (RNA, riboswitch) GGACCUAUAAUCGCGUGGAUAUGGCACGCAAGUUUCUACCGGGCACCGUAAAUGUCCGACUAGGUCCA
Kind of test: ITC. The note with it: 100 mM KCl, 20 mM MgCl2, 50 mM K-HEPES; pH 7.5, 25 °C, single-site fit.

Test [3] has as its system GR RNA, crystallized (RNA, riboswitch) GGACAUAUAAUCGCGUGGAUAUGGCACGCAAGUUUCUACCGGGCACCGUAAAUGUCCGACUAUGUCC
The test can be described thus: X-ray crystallography. The note with it: cobalt hexammine 30–50 mM, ammonium acetate 600–650 mM, 10 mM K-HEPES pH 7.5, PEG 3000, 24 °C.

Test [4] concerns GR(C74A) (RNA, riboswitch) GGACAUAUAAUCGCGUGGAUAUGGCACGCAAGUUUCUACCGGGCACCGUAAAUGUCCGAAUAUGUCCA
Kind of test: ITC. The note with it: 100 mM KCl, 20 mM MgCl2, 50 mM K-HEPES; pH 7.5, 25 °C, single-site fit.

Test [5] concerns GR(C74G) (RNA, riboswitch) GGACAUAUAAUCGCGUGGAUAUGGCACGCAAGUUUCUACCGGGCACCGUAAAUGUCCGAGUAUGUCCA
The test can be described thus: ITC. The note with it: 100 mM KCl, 20 mM MgCl2, 50 mM K-HEPES; pH 7.5, 25 °C, single-site fit.

Test [6] deals with GR A19C C74U U77G (RNA, riboswitch) GGACCUAUAAUCGCGUGGAUAUGGCACGCAAGUUUCUACCGGGCACCGUAAAUGUCCGAUUAGGUCCA
The test can be described thus: ITC. The note with it: 100 mM KCl, 20 mM MgCl2, 50 mM K-HEPES; pH 7.5, 25 °C, single-site fit.

Test [7] deals with GR(C74U) (RNA, riboswitch) GGACAUAUAAUCGCGUGGAUAUGGCACGCAAGUUUCUACCGGGCACCGUAAAUGUCCGAUUAUGUCCA
Kind of test: ITC. Particulars: 100 mM KCl, 20 mM MgCl2, 50 mM K-HEPES; pH 7.5, 25 °C, single-site fit.

Test [8] has as its system GR A19U U77A (RNA, riboswitch) GGACUUAUAAUCGCGUGGAUAUGGCACGCAAGUUUCUACCGGGCACCGUAAAUGUCCGACUAAGUCCA
Kind of test: ITC. Particulars: 100 mM KCl, 20 mM MgCl2, 50 mM K-HEPES; pH 7.5, 25 °C, single-site fit.

The test system of test [9] is GR A19G C74U U77C (RNA, riboswitch) GGACGUAUAAUCGCGUGGAUAUGGCACGCAAGUUUCUACCGGGCACCGUAAAUGUCCGAUUACGUCCA
The test can be described thus: ITC. The note with it: 100 mM KCl, 20 mM MgCl2, 50 mM K-HEPES; pH 7.5, 25 °C, single-site fit.

For test [10], the system named is GR A19U C74U U77A (RNA, riboswitch) GGACUUAUAAUCGCGUGGAUAUGGCACGCAAGUUUCUACCGGGCACCGUAAAUGUCCGAUUAAGUCCA
The test can be described thus: ITC. The note with it: 100 mM KCl, 20 mM MgCl2, 50 mM K-HEPES; pH 7.5, 25 °C, single-site fit.

Test [11] deals with GR A19G U77 (RNA, riboswitch) GGACGUAUAAUCGCGUGGAUAUGGCACGCAAGUUUCUACCGGGCACCGUAAAUGUCCGACUAUGUCCA
Kind of test: ITC. The note with it: 100 mM KCl, 20 mM MgCl2, 50 mM K-HEPES; pH 7.5, 25 °C, single-site fit.

Test [12] has as its system GR A19G U77C (RNA, riboswitch) GGACGUAUAAUCGCGUGGAUAUGGCACGCAAGUUUCUACCGGGCACCGUAAAUGUCCGACUACGUCCA
The test can be described thus: ITC. Particulars: 100 mM KCl, 20 mM MgCl2, 50 mM K-HEPES; pH 7.5, 25 °C, single-site fit.

In the case of `Nc1nc(OCc2ccccc2)c2[nH]cnc2n1`, the binding result in test [1] is “no”.
Take `CC(C)(C)C(=O)Nc1nc2[nH]cnc2c(=O)[nH]1`: the KD (commonly the concentration at which binding is half-saturated) in test [1] is recorded as 230,000 ± 10,000 nM.
Consider `CC(C)C(=O)Nc1nc2[nH]cnc2c(=O)[nH]1`, for which the KD in test [1] is recorded as 7.4 ± 0.5 nM; in [2], 4.5 ± 2.0 nM.
With `CC1CC(O)n2c(nc3[nH]cnc3c2=O)N1` (stereo not shown), the KD in test [1] is 79,000 ± 1000 nM.
Still for that read-out and setting: as for `O=c1[nH]cnc2nc[nH]c12`, the figure is 240 ± 30 nM.
`Nc1nc2[nH]cnc2c(=O)[nH]1`: the KD in [1] turned out to be 2.1 ± 0.7 nM; in [2] it was 0.85 ± 0.31 nM. Further, the binding entry in [3] (1.6 Å) is reported as “yes”.
Take `Nc1nc(Cl)c2[nH]cnc2n1`: the KD in test [1] was determined as 340 ± 30 nM.
Still for that read-out and setting: as for `Nc1nc2c(=O)[nH]cnc2[nH]1`, the figure is 14,000 ± 1000 nM; as for `NS(=O)(=O)c1ccc(Nc2nc(OCC3CCCCC3)c3nc[nH]c3n2)cc1`, 5600 ± 600 nM.
As for `CC(=O)Nc1nc2[nH]cnc2c(=O)[nH]1`, the KD in [1] came to 300 ± 10 nM. The binding result in test [3] is reported as “yes”.
Taken in the same sequence, the figures for `Nc1nc2[nH]c(N)nc2c(=O)[nH]1` were 36 ± 13 nM and “yes”.
The like results for `Nc1nc(OCC2CCCCC2)c2[nH]cnc2n1` were, in that order, 17,000 ± 1000 nM and “yes”.
`O=C(COc1ccccc1)Nc1nc2[nH]cnc2c(=O)[nH]1`: the dissociation constant (KD) in test [4] is recorded as 85,000 ± 25,000 nM; in test [5], 42,000 ± 2000 nM; in test [1], 8.8 ± 0.5 nM; in [6] it was 4100 ± 400 nM; in test [7] it was 7500 ± 800 nM; in test [2] it was 2.2 ± 0.6 nM. Moreover, the equilibrium dissociation constant (KD) is 7.8 ± 1.6 nM in [8]; 44,000 ± 4000 nM in test [9]; 66,000 ± 5000 nM in [10]; 5.4 ± 1.2 nM in [11]; 4.9 ± 1.2 nM in [12].
For `Nc1nc(NC2CC2)c2nc[nH]c2n1`, the dissociation constant KD in test [1] was 25,000 ± 3000 nM.
With `COc1nc(N)nc2[nH]cnc12`, the KD in [1] is on record as 6400 ± 400 nM.
Take `CNc1nc2[nH]cnc2c(=O)[nH]1`: the dissociation constant KD in [1] was 17,000 ± 1000 nM.
In the case of `O=c1c2[nH]cnc2nc2ncccn12`, in test [1], the binding result is “no”.
For the compound `Nc1nc2[nH]c(O)nc2c(=O)[nH]1`, the dissociation constant KD in [1] was 10 ± 4 nM.
